In ChEMBL document CHEMBL1201862, “PubChem BioAssay data set” (2004):
Calls of active or inactive are those of the source.

How the values were obtained:
Beta-galactosidase = Beta-galactosidase (Escherichia coli, UniProt Q8VNN2); experiment: Dose response counterscreen for EBI2 assay utilizing the enzyme, b-galactosidase.; format: functional
cells [1] = format: functional, cell-based
cells [2] = format: functional, cell-based; remark: listed apart in the source
[3] = target: T1, Rac GTPase-activating protein 1 (Homo sapiens, UniProt Q9H0H5); experiment: blockers of MgcRacGAP-driven Rac1 GTP hydrolysis – biochemical, ADP Hunter fluorescence, primary and confirmatory, confirmation (AID 624330); format: functional
T1 sequence (Q9H0H5 whole entry): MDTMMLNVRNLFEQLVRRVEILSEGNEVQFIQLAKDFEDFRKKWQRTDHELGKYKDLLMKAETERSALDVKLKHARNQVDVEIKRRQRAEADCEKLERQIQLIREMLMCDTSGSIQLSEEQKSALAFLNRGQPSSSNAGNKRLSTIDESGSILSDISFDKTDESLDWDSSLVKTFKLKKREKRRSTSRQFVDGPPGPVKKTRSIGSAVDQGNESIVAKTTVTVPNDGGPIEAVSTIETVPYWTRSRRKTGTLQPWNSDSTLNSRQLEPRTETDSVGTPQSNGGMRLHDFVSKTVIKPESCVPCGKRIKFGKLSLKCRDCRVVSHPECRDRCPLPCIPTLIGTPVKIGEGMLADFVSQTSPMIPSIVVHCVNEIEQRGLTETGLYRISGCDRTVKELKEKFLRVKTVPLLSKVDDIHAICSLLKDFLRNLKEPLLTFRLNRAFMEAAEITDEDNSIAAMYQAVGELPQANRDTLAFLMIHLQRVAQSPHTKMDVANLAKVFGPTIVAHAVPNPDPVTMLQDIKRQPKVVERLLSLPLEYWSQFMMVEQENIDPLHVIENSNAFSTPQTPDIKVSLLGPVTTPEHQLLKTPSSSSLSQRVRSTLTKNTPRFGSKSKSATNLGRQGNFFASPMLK

[4] = viability loss in HeLa cells – cytotoxicity control for MgcRacGAP inhibitor project, dose response (AID 624300); format: functional
[5] = target: T2, Heat shock factor protein 1 (Mus musculus, UniProt P38532); experiment: decrease of HSF1-responsive luciferase luminescence – cell-based, NIH3T3, dose retest, confirmation (AID 2382); format: functional;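 further: NIH3T3 fibroblasts with HSF1-driven luciferase reporter stressed by proteasome inhibitor MG132; luminescence from HSF1-driven luciferase expression after 8 hours of MG132 stress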
T2 sequence (P38532 whole entry): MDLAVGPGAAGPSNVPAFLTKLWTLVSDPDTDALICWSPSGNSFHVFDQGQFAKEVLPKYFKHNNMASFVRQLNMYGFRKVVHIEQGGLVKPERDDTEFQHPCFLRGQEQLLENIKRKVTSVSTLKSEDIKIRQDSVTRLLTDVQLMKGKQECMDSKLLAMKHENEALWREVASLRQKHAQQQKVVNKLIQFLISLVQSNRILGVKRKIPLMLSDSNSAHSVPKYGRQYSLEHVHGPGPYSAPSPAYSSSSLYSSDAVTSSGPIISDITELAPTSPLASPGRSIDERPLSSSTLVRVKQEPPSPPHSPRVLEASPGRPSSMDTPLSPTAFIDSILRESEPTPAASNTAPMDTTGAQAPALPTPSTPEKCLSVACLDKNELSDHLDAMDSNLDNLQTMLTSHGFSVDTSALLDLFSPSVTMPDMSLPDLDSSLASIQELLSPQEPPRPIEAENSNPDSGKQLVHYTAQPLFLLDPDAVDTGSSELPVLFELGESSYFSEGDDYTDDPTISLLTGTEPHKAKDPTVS

Vero = experiment: viability loss in Vero cells – cell-based, plate reader, cherry-pick samples, cytotoxicity control, dose response (AID 687020); format: functional; settings: Chlorocebus sabaeus
[6] = target: T3, Small ubiquitin-related modifier 1 (Homo sapiens, UniProt P63165); experiment: SUMO1 protein-protein binding blockers, potency – biochemical, FRET, dose response (AID 624383); format: functional; settings: read-out: IC50_Mean
[7] = target: Tyrosyl-DNA phosphodiesterase 2 (Homo sapiens, UniProt O95551); experiment: potency against TDP2 phosphodiesterase activity – biochemical, epi absorbance, IC50, dose response (AID 743297)
[8] = target: T3, Small ubiquitin-related modifier 1; experiment: SUMO1 protein interaction blockers, potency – biochemical, fluorescence polarization, uHTS hits, dose response (AID 624382); format: functional; settings: read-out: IC50_Mean
[9] = activation of miR-122 Renilla sensor silencing – cell-based, Huh7 psiCHECK-miR122, Renilla luciferase, cherry-picked, dose response (AID 651956); format: functional;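 further: huh7 hepatoma cells stably carrying a psiCHECK-2 miR-122 sensor plasmid; renilla luciferase signal reporting endogenous miR-122 activity after 48 h compound exposure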
[10] = general mammalian cell viability loss – inhibitor set, cherry-pick, set 2, cytotoxicity control for miR-122 modulator project, dose response (AID 720697); format: functional, cell-based
[11] = general cell-killing toxicity readout – plate reader, dry powder samples, cytotoxicity control for PAX8 inhibitor project, dose response (AID 743021); format: functional, cell-based
Paired box protein Pax-8 = Paired box protein Pax-8 (Homo sapiens, UniProt Q06710); experiment: PAX8 transcriptional activity inhibition in RMG-I – RMG-I cells, luciferase, cherry-pick, dose response (AID 687027); format: functional, cell-based;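 further: luciferase reporter driven by Pax8 target thyroperoxidase promoter measured by SteadyGlo luminescence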
[12] = cytotoxicity in MITF-independent A375 cells – cell-based, CellTiter-Glo luminescence, dry powder, set 4, counter-screen for MITF inhibitor project, dose response (AID 624364); format: functional; settings: A-375;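 further: A375 melanoma cells are MITF independent so this is a counter screen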
[13] = viability loss in MITF-independent A375 cells – cell-based, CellTiter-Glo luminescence, dry powder, set 2, counter-screen for MITF inhibitor project, dose response (AID 624489); format: functional; settings: A-375;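 further: actives are compounds lowering A375 viability meaning general cytotoxicity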
[14] = target: T4, Mannose-6-phosphate isomerase (Homo sapiens, UniProt P34949); experiment: MPI inhibition at elevated mannose 6-phosphate – biochemical, fluorescence intensity, high mannose 6-phosphate, primary screen (AID 1220)
T4 sequence (P34949 whole entry): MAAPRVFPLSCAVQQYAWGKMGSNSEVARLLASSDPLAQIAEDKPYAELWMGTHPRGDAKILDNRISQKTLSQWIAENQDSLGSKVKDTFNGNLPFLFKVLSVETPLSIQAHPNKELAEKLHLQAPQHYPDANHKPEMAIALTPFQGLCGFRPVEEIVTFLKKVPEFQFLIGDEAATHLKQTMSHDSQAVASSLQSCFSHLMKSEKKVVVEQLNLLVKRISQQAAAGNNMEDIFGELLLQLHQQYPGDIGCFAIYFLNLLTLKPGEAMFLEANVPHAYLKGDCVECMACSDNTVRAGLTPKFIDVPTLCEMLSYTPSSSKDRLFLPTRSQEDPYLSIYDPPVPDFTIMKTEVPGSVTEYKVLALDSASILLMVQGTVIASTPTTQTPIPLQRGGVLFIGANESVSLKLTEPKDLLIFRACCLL

[15] = target: T5, Histone-lysine N-methyltransferase NSD2 (Homo sapiens, UniProt O96028); format: biochemical
T5 sequence (O96028 whole entry): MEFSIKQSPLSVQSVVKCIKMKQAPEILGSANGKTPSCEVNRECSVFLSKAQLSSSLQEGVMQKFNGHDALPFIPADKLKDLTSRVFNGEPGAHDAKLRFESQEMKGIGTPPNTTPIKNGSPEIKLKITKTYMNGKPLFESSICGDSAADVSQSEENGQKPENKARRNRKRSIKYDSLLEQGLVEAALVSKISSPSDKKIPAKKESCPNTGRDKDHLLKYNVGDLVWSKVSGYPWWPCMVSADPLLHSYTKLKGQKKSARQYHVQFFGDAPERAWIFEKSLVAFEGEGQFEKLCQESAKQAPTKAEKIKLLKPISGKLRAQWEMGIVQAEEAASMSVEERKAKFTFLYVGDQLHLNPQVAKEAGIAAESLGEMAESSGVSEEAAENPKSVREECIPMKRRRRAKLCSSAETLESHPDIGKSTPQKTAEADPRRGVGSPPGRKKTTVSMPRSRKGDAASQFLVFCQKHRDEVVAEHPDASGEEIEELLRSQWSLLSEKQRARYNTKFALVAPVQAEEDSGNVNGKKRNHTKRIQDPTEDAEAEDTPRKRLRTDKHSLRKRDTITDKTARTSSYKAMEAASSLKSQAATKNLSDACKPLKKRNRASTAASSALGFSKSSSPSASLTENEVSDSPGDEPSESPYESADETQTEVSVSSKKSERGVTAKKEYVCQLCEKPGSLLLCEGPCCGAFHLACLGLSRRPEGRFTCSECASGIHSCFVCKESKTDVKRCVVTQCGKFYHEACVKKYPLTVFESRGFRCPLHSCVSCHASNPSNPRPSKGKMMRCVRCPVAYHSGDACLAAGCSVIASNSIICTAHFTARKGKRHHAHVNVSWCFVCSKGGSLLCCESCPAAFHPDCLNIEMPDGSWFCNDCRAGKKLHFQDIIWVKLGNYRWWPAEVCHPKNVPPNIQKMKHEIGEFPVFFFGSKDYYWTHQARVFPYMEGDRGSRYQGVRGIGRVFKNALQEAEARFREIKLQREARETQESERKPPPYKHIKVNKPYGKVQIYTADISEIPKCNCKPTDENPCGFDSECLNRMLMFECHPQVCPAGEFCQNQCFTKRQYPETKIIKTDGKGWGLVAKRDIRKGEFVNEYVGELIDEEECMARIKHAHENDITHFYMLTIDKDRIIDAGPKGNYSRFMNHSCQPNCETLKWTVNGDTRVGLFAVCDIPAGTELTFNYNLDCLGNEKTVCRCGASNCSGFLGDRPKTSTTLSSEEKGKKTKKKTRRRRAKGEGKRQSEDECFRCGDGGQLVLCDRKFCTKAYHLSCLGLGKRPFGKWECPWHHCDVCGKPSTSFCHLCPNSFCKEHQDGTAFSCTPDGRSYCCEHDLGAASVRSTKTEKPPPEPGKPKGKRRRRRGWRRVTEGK

Large T antigen = Large T antigen (Simian virus 40, UniProt P03070); format: functional, Betapolyomavirus macacae;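 further: Confirmatory-stage PubChem screen for compounds that inhibit SV40 T antigen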
cells [16] = format: functional, cell-based; remark: listed apart in the source
Cytochrome P450 2C9 = Cytochrome P450 2C9 (Homo sapiens, UniProt P11712)
Cytochrome P450 2D6 = Cytochrome P450 2D6 (Homo sapiens, UniProt P10635);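 further: CYP2D6 member of a cytochrome P450 panel assay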
Cytochrome P450 3A4 = Cytochrome P450 3A4 (Homo sapiens, UniProt P08684);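 further: CYP3A4 tested as one member of a cytochrome P450 panel screen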
[17] = target: T6, Nuclear receptor subfamily 0 group B member 1 (Homo sapiens, UniProt P51843); format: functional, cell-based;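 further: HEK293T cells transfected with SF-1 and DAX-1 plus StAR promoter luciferase reporter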
T6 sequence (P51843 whole entry): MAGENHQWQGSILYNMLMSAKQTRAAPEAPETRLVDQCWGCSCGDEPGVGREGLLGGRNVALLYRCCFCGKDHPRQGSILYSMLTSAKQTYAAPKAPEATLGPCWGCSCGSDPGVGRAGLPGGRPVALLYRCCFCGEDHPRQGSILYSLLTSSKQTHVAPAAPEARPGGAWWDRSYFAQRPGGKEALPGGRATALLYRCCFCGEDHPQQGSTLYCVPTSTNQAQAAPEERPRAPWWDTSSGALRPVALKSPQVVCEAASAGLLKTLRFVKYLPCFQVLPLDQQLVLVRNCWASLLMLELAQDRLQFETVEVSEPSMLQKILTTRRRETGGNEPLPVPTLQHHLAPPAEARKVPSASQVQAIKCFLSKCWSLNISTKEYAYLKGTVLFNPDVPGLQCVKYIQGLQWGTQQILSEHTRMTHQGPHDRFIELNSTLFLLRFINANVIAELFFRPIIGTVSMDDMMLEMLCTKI

T3 sequence (P63165 whole entry): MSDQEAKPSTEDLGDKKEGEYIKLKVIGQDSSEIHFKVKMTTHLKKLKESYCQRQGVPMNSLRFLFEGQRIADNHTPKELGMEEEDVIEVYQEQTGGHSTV
Chain of Beta-galactosidase (Q8VNN2 whole entry): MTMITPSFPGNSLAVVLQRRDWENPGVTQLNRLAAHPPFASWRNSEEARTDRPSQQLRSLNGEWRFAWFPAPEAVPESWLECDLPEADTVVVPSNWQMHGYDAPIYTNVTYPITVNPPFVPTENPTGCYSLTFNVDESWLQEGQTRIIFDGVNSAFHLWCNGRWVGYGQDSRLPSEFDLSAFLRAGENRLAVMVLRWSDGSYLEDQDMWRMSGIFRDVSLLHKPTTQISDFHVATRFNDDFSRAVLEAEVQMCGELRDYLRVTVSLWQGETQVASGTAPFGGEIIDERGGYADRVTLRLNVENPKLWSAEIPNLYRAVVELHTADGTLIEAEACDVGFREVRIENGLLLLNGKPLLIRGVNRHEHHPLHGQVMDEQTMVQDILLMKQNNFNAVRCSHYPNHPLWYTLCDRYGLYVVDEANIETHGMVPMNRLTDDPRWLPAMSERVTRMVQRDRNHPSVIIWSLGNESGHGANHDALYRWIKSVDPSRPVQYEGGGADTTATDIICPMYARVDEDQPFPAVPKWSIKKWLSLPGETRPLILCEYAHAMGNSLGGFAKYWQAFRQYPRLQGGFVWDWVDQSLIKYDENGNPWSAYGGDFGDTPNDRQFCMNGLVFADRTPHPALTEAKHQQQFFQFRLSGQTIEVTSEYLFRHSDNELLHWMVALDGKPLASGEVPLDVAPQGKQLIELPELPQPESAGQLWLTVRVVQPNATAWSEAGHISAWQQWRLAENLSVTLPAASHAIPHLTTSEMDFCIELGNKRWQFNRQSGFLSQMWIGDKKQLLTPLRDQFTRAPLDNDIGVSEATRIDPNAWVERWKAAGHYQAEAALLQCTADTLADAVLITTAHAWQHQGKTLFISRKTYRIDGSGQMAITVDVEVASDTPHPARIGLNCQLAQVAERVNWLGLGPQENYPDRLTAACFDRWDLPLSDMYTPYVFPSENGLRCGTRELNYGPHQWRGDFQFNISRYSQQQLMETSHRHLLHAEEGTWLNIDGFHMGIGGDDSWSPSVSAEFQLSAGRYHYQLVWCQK
Chain of Paired box protein Pax-8 (Q06710 whole entry): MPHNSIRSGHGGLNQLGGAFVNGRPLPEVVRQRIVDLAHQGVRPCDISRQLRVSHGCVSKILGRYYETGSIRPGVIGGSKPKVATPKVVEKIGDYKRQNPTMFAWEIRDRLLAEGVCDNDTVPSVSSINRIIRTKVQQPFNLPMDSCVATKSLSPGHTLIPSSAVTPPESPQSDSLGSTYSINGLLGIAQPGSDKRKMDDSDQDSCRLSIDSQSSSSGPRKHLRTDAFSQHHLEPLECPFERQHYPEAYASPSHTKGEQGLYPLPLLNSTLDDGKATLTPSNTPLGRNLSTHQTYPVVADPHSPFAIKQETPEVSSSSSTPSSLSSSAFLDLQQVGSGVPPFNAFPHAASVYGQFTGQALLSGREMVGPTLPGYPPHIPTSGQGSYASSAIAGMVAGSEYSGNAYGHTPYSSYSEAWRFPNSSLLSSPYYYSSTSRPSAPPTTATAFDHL
Chain of Large T antigen (P03070 whole entry): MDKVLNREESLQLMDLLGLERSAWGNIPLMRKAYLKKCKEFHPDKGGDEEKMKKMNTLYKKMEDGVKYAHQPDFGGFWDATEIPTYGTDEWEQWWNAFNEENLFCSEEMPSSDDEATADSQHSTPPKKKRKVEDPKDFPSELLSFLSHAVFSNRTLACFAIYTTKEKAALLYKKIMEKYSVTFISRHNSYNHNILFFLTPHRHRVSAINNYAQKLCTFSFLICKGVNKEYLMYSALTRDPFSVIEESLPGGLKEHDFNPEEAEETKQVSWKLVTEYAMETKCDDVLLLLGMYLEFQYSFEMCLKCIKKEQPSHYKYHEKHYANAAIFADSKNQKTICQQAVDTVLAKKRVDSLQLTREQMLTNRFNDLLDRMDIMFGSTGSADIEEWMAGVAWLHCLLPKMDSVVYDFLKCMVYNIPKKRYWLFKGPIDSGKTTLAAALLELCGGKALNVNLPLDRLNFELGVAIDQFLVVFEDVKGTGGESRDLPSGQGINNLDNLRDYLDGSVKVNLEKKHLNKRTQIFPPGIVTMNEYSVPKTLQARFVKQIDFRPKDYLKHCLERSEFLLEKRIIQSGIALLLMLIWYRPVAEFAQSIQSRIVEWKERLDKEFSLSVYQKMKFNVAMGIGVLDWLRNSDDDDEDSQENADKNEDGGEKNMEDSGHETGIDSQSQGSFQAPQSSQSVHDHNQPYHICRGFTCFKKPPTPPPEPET
Chain of Cytochrome P450 3A4 (P08684 whole entry): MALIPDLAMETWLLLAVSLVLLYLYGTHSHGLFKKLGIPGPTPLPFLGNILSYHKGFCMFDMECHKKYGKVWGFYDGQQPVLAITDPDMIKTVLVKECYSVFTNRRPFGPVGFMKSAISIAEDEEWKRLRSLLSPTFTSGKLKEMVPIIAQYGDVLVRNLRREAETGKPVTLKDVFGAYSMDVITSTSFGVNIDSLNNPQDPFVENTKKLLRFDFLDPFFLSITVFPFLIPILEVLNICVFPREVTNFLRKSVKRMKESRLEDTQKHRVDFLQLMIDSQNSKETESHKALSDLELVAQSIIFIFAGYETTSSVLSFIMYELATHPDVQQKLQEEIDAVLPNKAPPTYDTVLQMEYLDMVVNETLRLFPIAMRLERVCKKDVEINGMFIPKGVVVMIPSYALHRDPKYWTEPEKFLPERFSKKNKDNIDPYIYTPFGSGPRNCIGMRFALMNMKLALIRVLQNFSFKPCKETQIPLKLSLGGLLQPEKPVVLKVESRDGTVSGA
Chain of Cytochrome P450 2D6 (P10635 whole entry): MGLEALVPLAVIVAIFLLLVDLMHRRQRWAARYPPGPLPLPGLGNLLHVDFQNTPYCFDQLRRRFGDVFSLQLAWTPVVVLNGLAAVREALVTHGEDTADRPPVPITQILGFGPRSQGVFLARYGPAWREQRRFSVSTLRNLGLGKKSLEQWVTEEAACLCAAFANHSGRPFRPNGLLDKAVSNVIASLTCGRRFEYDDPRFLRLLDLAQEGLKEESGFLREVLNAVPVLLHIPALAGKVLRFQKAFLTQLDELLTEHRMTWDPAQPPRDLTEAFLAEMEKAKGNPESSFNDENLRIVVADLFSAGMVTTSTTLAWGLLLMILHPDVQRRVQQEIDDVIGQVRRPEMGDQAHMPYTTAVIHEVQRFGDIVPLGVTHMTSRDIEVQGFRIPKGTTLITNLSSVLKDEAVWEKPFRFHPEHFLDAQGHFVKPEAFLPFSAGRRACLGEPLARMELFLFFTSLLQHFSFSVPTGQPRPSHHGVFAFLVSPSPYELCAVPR
Chain of Cytochrome P450 2C9 (P11712 whole entry): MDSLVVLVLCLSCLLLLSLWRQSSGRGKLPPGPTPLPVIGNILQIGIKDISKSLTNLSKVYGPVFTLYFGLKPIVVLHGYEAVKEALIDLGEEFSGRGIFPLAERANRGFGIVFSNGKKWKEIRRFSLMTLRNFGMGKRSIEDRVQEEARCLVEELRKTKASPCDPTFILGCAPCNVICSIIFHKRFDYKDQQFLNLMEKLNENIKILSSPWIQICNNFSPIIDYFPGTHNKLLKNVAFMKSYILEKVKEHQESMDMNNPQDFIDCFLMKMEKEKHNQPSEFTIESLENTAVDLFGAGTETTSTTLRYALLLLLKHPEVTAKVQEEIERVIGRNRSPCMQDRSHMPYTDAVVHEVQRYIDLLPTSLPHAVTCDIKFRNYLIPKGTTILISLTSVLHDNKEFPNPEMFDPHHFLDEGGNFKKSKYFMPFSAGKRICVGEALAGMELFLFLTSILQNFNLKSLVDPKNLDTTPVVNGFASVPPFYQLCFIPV
Chain of Tyrosyl-DNA phosphodiesterase 2 (O95551 whole entry): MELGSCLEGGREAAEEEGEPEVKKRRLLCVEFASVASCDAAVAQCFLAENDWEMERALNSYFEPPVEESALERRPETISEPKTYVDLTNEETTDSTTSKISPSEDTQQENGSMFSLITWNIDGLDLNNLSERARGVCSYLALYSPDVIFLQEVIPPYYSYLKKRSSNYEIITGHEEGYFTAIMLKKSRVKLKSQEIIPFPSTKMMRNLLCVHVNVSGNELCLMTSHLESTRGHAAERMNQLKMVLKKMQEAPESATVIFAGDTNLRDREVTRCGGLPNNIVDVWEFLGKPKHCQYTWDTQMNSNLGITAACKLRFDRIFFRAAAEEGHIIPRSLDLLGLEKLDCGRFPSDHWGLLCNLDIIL

CCOC(=O)N1CCN(C(=O)c2cc3cc(Cl)ccc3[nH]2)CC1
IC50 (Beta-galactosidase): > 80 µM (inactive)

COc1ccc(OCC(=O)N2CCc3ccccc3C2)cc1
IC50 (cells [1]): > 29.9 µM (inactive)
EC50 (cells [2]): > 29.9 µM (inactive)

CCN1CCN(C(=O)/C=C/c2ccc(OC)cc2)CC1
IC50 (Beta-galactosidase): > 80 µM (inactive)

COc1cc(/C=C2\SC(Nc3ccccc3OC)=NC2=O)ccc1O
IC50 [3]: 22.2 µM (active)
CC50 [4]: 100 µM (active)

CCOC(=O)c1cc(S(=O)(=O)N2CCc3ccccc32)cn1C
EC50 [5]: > 195 µM (not active)
AC50 (Vero): 17.9 µM (active)

COc1ccc(C(=O)NCCNc2nc3c(C)cccc3cc2C#N)cc1OC
AC50 (Vero): 25.7 µM (active)

CCC(CO)Oc1cc(NC(=O)c2cccc(OC)c2)c2ncn(C(C)C)c2c1 (configuration not stated)
IC50 [6]: 12.7 µM (active)
IC50 [7]: 36.6 µM (inactive)
IC50 [8]: > 66.6 µM (inactive)

CNc1nc(NCCOc2ccccc2)c2sccc2n1
AC50 [9]: 38.3 µM (active)
AC50 [10]: 4.2 µM (active)

CC1NC(C)c2c(ccc3ccccc23)O1 (configuration not stated)
IC50 (cells [1]): > 29.9 µM (inactive)
EC50 (cells [2]): > 29.9 µM (inactive)
IC50 [3]: 114 µM (active)

CCNC(=O)C[C@@H]1CC[C@@H]2[C@H](COc3ccc(NC(=O)Nc4cccc(Cl)c4)cc3C(=O)N2C)O1
AC50 [9]: 4.02 µM (active)
AC50 [10]: < 0.195 µM (active)

COC(=O)C1=C(C)N(Cc2ccc(C(F)(F)F)cc2)C(NCc2ccccc2)=NC1c1cccc(F)c1 (configuration not stated)
AC50 [11]: 23.4 µM (active)
AC50 (Paired box protein Pax-8): 26.8 µM (active)

C=CCNC1=C(N2CCSCC2)C(=O)c2ccccc2C1=O
AC50 [12]: 24.3 µM (active)
AC50 [13]: 8.56 µM (active)

Oc1ccc(/C=N/Nc2cc(N3CCOCC3)nc(N3CCOCC3)n2)cc1O
IC50 [3]: 52.1 µM (active)
IC50 [14]: 28.9 µM (active)
CC50 [4]: 100 µM (active)
AC50 [15]: 7.86 µM (active)
IC50 (Large T antigen): 23.1 µM (active)

CC(=O)NC1=C(c2ccc(Cl)cc2)C(=O)c2ccccc2C1=O
AC50 [12]: 12.4 µM (active)
AC50 [13]: 9.22 µM (active)

O=c1cc(-c2ccccc2)oc2cc(O)cc(O)c12 [CHRYSIN]
IC50 (cells [16]): > 67.6 µM (inactive)
AC50 (Cytochrome P450 2C9): 5.01 µM (inconclusive)
AC50 (Cytochrome P450 2D6): 12.6 µM (inconclusive)
AC50 (Cytochrome P450 3A4): 3.16 µM (inconclusive)
IC50 [17]: > 67.6 µM (inactive)

O=C1Cc2c([nH]c3ccc(Br)cc23)-c2ccccc2N1 [KENPAULLONE]
IC50 (cells [16]): > 67.5 µM (inactive)
IC50 [17]: > 0.834 µM (active)
